Here are results for 39 molecules from patent US11472798B2 (Mission Therapeutics Limited, priority 2014, dated 2022).

The term IC50 denotes the concentration that inhibits the measured activity by half.

This assay deals with T1, UCHL1 (Homo sapiens, UniProt P09936).
T1 construct: made in house; host or cells: HEK293T
T1 sequence (P09936 1-223): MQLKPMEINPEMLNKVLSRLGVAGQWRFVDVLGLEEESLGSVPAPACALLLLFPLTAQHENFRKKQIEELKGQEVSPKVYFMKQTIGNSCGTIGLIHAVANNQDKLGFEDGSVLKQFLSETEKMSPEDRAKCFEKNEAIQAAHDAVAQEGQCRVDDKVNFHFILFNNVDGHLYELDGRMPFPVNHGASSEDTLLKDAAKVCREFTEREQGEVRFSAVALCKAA
Briefly: UCHL1 biochemical IC50 assay (fluorescence polarisation). Particulars: 30 min enzyme/compound pre-incubation at room temp, read after 2 hr incubation, read-out: Activity range (UCHL1 biochemical IC50 assay). The essentials: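 FLAG-UCHL1 purified from transfected HEK293T cells was preincubated 30 min at room temperature with compound (8 points, 100–0.03 μM final) in Tris pH 7.5 buffer with Tween 20, BSA and beta-mercaptoethanol. Reaction started with 50 nM TAMRA-peptide–ubiquitin isopeptide substrate; fluorescence polarisation (ex 540/em 590 nm) read at once and after 2 h.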
For orientation: In fluorescence polarisation assays a small probe gives low polarisation when free and higher when bound to something large.
Turning to `Cc1nccc(-n2cnc(NC(=O)[C@H]3CCN(C#N)C3)c2)n1` [Example 176, (S)-1-cyano-N-(1-(2-methylpyrimidin-4-yl)-1H-imidazol-4-yl)pyrrolidine-3-carboxamide], the IC50 lay in the range of 1 to 10 µM.

For the molecule `N#CN1CC[C@H](C(=O)Nc2cn(-c3cccc(F)c3)cn2)C1` [Example 151, (S)-1-cyano-N-(1-(3-fluorophenyl)-1H-imidazol-4-yl)pyrrolidine-3-carboxamide], the IC50 was under 1 µM.

`N#CN1CC[C@H](C(=O)Nc2cn(Cc3ccccn3)cn2)C1` [Example 168, (S)-1-cyano-N-(1-(pyridin-2-ylmethyl)-1H-imidazol-4-yl)pyrrolidine-3-carboxamide]: the IC50 is under 1 µM.

Turning to `Cc1nn(C)cc1-c1ccc2nc(NC(=O)[C@H]3CCN(C#N)C3)sc2c1` [Example 288, (S)-1-cyano-N-(6-(1,3-dimethyl-1H-pyrazol-4-yl)benzo[d]thiazol-2-yl)pyrrolidine-3-carboxamide], the IC50 is under 1 µM.

For `N#CN1CC[C@H](C(=O)Nc2ncc(Cc3ccccc3)s2)C1` [Example 57, (S)-N-(5-benzylthiazol-2-yl)-1-cyanopyrrolidine-3-carboxamide], the IC50 was under 1 µM.

Consider `N#CN1CC[C@H](C(=O)Nc2cn(C3CCc4ccccc43)cn2)C1` (stereo partly drawn) [Example 163], for which the IC50 is under 1 µM.

`N#Cc1cccc(-n2cnc(NC(=O)[C@H]3CCN(C#N)C3)c2)c1` [Example 180, (S)-1-cyano-N-(1-(3-cyanophenyl)-1H-imidazol-4-yl)pyrrolidine-3-carboxamide]: the 50% inhibitory concentration (IC50) is under 1 µM.

With `CNC(=O)c1cccc(-n2cnc(NC(=O)[C@H]3CCN(C#N)C3)c2)c1` [Example 156, (S)-1-cyano-N-(1-(3-(methylcarbamoyl)phenyl)-1H-imidazol-4-yl)pyrrolidine-3-carboxamide], the half-inhibitory concentration (IC50) is under 1 µM.

On to `N#CN1CCC(C(=O)Nc2ccc(-c3ccncc3)cn2)C1` (stereo not drawn) [Example 34, N-([3,4′-bipyridin]-6-yl)-1-cyano-pyrrolidine-3-carboxamide], for which the half-maximal inhibitory concentration (IC50) lay within 1 to 10 µM.

As for `N#CN1CC[C@H](C(=O)Nc2nc3c(s2)CN(C(=O)c2ccccn2)CC3)C1` [Example 193, (S)-1-cyano-N-(5-picolinoyl-4,5,6,7-tetrahydrothiazolo[5,4-c]pyridin-2-yl)pyrrolidine-3-carboxamide], the IC50 was under 1 µM.

In the case of `N#CN1CC[C@H](C(=O)Nc2nc3c(s2)CN(S(=O)(=O)c2ccccc2)CC3)C1` [Example 204, (S)-1-cyano-N-(5-(phenylsulfonyl)-4,5,6,7-tetrahydrothiazolo[5,4-c]pyridin-2-yl)pyrrolidine-3-carboxamide], the IC50 was under 1 µM.

Consider `N#CN1CCC(C(=O)Nc2nc3ccccc3[nH]2)C1` (stereo not drawn) [Example 23, N-(1H-benzo[d]imidazol-2-yl)-1-cyano-pyrrolidine-3-carboxamide], for which the IC50 was in the range of 10 to 30 µM.

Take `N#CN1CC[C@H](C(=O)Nc2ncc(C3CCOCC3)s2)C1` [Example 59, (S)-1-cyano-N-(5-(tetrahydro-2H-pyran-4-yl)thiazol-2-yl)pyrrolidine-3-carboxamide]: the IC50 is under 1 µM.

With `CC1(C(=O)Nc2cn(-c3ccccc3)cn2)CCN(C#N)C1` (stereo not drawn) [Example 79, 1-cyano-3-methyl-N-(1-phenyl-1H-imidazol-4-yl)pyrrolidine-3-carboxamide], the IC50 lay within 10 to 30 µM.

Consider `COc1cc(-c2ccc3nc(NC(=O)[C@H]4CCN(C#N)C4)cn3c2)c(OC)nn1` [Example 131, (S)-1-cyano-N-(6-(3,6-dimethoxypyridazin-4-yl)imidazo[1,2-a]pyridin-2-yl)pyrrolidine-3-carboxamide], for which the IC50 was under 1 µM.

In the case of `N#CN1CC[C@H](C(=O)Nc2cc(-c3ccnc4nccn34)ccn2)C1` [Example 252, (S)-1-cyano-N-(4-(imidazo[1,2-a]pyrimidin-5-yl)pyridin-2-yl)pyrrolidine-3-carboxamide], the IC50 lay in the range of 1 to 10 µM.

As to `N#CN1CC[C@H](C(=O)Nc2cn3ccc(Br)cc3n2)C1` [Example 50, (S)-N-(7-bromoimidazo[1,2-a]pyridin-2-yl)-1-cyano-pyrrolidine-3-carboxamide], the IC50 was in the range of 1 to 10 µM.

Take `COC[C@H]1CCCN1Cc1cnc(NC(=O)[C@H]2CCN(C#N)C2)s1` [Example 143, (S)-1-cyano-N-(5-(((R)-2-(methoxymethyl)pyrrolidin-1-yl)methyl)thiazol-2-yl)pyrrolidine-3-carboxamide]: the half-maximal inhibitory concentration (IC50) was 1 to 10 µM.

Consider `CC(=O)N1CCc2nc(NC(=O)[C@H]3CCN(C#N)C3)sc2C1` [Example 189, (S)—N-(5-acetyl-4,5,6,7-tetrahydrothiazolo[5,4-c]pyridin-2-yl)-1-cyanopyrrolidine-3-carboxamide], for which the IC50 was under 1 µM.

In the case of `C[C@H]1[C@@H](C(=O)Nc2cn(-c3ccccc3)cn2)CCN1C#N` [Example 74, (2S,3S)-1-cyano-2-methyl-N-(1-phenyl-1H-imidazol-4-yl)pyrrolidine-3-carboxamide], the IC50 is under 1 µM.

In the case of `COc1cc(-c2cnc(NC(=O)[C@H]3CCN(C#N)C3)s2)ccc1C#N` [Example 220, (S)-1-cyano-N-(5-(4-cyano-3-methoxyphenyl)thiazol-2-yl)pyrrolidine-3-carboxamide], the IC50 was under 1 µM.

Take `CNC(=O)c1cc(-c2cnc(NC(=O)[C@H]3CCN(C#N)C3)s2)ccc1Cl` [Example 238, (S)-N-(5-(4-chloro-3-(methylcarbamoyl)phenyl)thiazol-2-yl)-1-cyanopyrrolidine-3-carboxamide]: the IC50 was under 1 µM.

As to `Cc1ccc(-c2ccc(NC(=O)C3CCN(C#N)C3)nc2)cc1` (stereo not drawn) [Example 134, 1-cyano-N-(5-(p-tolyl)pyridin-2-yl)pyrrolidine-3-carboxamide], the IC50 fell in the range of 1 to 10 µM.

With `N#CN1CCC(C(=O)Nc2ccc(-c3ccccn3)cn2)C1` (stereo not drawn) [Example 32, N-([2,3′-bipyridin]-6′-yl)-1-cyano-pyrrolidine-3-carboxamide], the 50% inhibitory concentration (IC50) is 1 to 10 µM.

As for `C[C@H]1[C@@H](C(=O)Nc2ncc(-c3ccccc3)s2)CCN1C#N` [Example 72, (2S,3S)-1-cyano-2-methyl-N-(5-phenylthiazol-2-yl)pyrrolidine-3-carboxamide], the IC50 was under 1 µM.

As for `N#CN1CC[C@H](C(=O)Nc2cn(-c3ccc4cn[nH]c4c3)cn2)C1` [Example 301, (S)-N-(1-(1H-indazol-6-yl)-1H-imidazol-4-yl)-1-cyanopyrrolidine-3-carboxamide], the IC50 is under 1 µM.

As for `N#CN1CC[C@H](C(=O)Nc2cn(-c3ccc(-c4cn[nH]c4)cc3)cn2)C1` [Example 294, (S)-N-(1-(4-(1H-pyrazol-4-yl)phenyl)-1H-imidazol-4-yl)-1-cyanopyrrolidine-3-carboxamide], the half-inhibitory concentration (IC50) is under 1 µM.

In the case of `N#CN1CCC(C(=O)Nc2nnc(-c3ccccc3)s2)C1` (stereo not drawn) [Example 11, 1-cyano-N-(5-phenyl-1,3,4-thiadiazol-2-yl)pyrrolidine-3-carboxamide], the IC50 was in the range of 1 to 10 µM.

As to `COc1ccc2nc(NC(=O)C3CCN(C#N)C3)sc2c1` (stereo not drawn) [Example 21, 1-cyano-N-(6-methoxybenzo[d]thiazol-2-yl)pyrrolidine-3-carboxamide], the IC50 was in the range of 1 to 10 µM.

Consider `N#CN1CCC(C(=O)Nc2cc(-c3ccccc3)ccn2)C1` (stereo not drawn) [Example 31, 1-cyano-N-(4-phenylpyridin-2-yl)pyrrolidine-3-carboxamide], for which the IC50 is 1 to 10 µM.

As to `N#CN1CC[C@H](C(=O)Nc2cc(-c3ccnc(N)c3)ccn2)C1` [Example 258, (S)-N-(2′-amino-[4,4′-bipyridin]-2-yl)-1-cyanopyrrolidine-3-carboxamide], the IC50 was in the range of 1 to 10 µM.

Consider `N#CN1CC[C@H](C(=O)Nc2cc(C3CCOCC3)[nH]n2)C1` [Example 43, (S)-1-cyano-N-(5-(tetrahydro-2H-pyran-4-yl)-1H-pyrazol-3-yl)pyrrolidine-3-carboxamide], for which the half-maximal inhibitory concentration (IC50) was under 1 µM.

As for `CC(C)S(=O)(=O)N1CCc2nc(NC(=O)[C@H]3CCN(C#N)C3)sc2CC1` [Example 277, (S)-1-cyano-N-(6-(isopropylsulfonyl)-5,6,7,8-tetrahydro-4H-thiazolo[4,5-d]azepin-2-yl)pyrrolidine-3-carboxamide], the 50% inhibitory concentration (IC50) was under 1 µM.

Regarding `N#CN1CC[C@H](C(=O)Nc2cnc(N3CCCC3)cn2)C1` [Example 108, (S)-1-cyano-N-(5-(pyrrolidin-1-yl)pyrazin-2-yl)pyrrolidine-3-carboxamide], the IC50 is 1 to 10 µM.

For `CC1CC(C(=O)Nc2ncc(N3CCCCC3)s2)CN1C#N` (stereo not drawn) [Example 105, 1-cyano-5-methyl-N-(5-(piperidin-1-yl)thiazol-2-yl)pyrrolidine-3-carboxamide], the IC50 fell in the range of 1 to 10 µM.

For `C#Cc1cccc(-c2cnc(NC(=O)[C@H]3CCN(C#N)C3)s2)c1` [Example 206, (S)-1-cyano-N-(5-(3-ethynylphenyl)thiazol-2-yl)pyrrolidine-3-carboxamide], the IC50 is under 1 µM.

Take `N#CN1CC[C@H](C(=O)Nc2cn(Cc3cccnc3)cn2)C1` [Example 169, (S)-1-cyano-N-(1-(pyridin-3-ylmethyl)-1H-imidazol-4-yl)pyrrolidine-3-carboxamide]: the half-maximal inhibitory concentration (IC50) is under 1 µM.

Turning to `N#CN1CCC(C(=O)Nc2ncc(CN3CCCC3)s2)C1` (stereo not drawn) [Example 141, 1-cyano-N-(5-(pyrrolidin-1-ylmethyl)thiazol-2-yl)pyrrolidine-3-carboxamide], the IC50 fell in the range of 1 to 10 µM.

On to `N#CN1CC[C@H](C(=O)Nc2cn(-c3ccccc3F)cn2)C1` [Example 152, (S)-1-cyano-N-(1-(2-fluorophenyl)-1H-imidazol-4-yl)pyrrolidine-3-carboxamide], for which the IC50 is under 1 µM.
